Data published in article PMC13288994, “Identification and characterization of novel chikungunya virus polymerase inhibitors” (Journal of Virology, 2026).
Like-named read-outs stand apart in the source and are kept apart here.

Columns and labels:
[1] = tested on: CHIKV-nLuc (181/25 strain); experiment: microbe, parasite or virus in culture; assay type: cell-based, Chikungunya virus; settings: 5 µM, 384-well format, read 20 h after infection
[2] = tested on: VEEV-TC83-nLuc; experiment: microbe, parasite or virus in culture; assay type: cell-based; settings: read-out: Antiviral potency (EC50 [µM]) VEEV
[3] = tested on: SINV-GLuc; experiment: microbe, parasite or virus in culture; assay type: cell-based; settings: VeroE6 cells; read-out: Antiviral potency (EC50 [µM]) SINV
[4] = tested on: HPIV3-nLuc; experiment: microbe, parasite or virus in culture; assay type: cell-based; settings: VeroE6 cells; read-out: Antiviral potency (EC50 [µM]) HPIV3
[5] = tested on: SARS-CoV-2-nLuc; experiment: microbe, parasite or virus in culture; assay type: cell-based; settings: VeroE6-TMPRSS2 cells; read-out: Antiviral potency (EC50 [µM]) SARS-CoV-2
[6] = tested on: RSV A2-L19F; experiment: microbe, parasite or virus in culture; assay type: cell-based; settings: Hep-2 cells; read-out: Antiviral potency (EC50 [µM]) RSV
[7] = tested on: VSV-nLuc; experiment: microbe, parasite or virus in culture; assay type: cell-based; settings: read-out: Antiviral potency (EC50 [µM]) VSV
[8] = tested on: CHIKV-nLuc; experiment: microbe, parasite or virus in culture; assay type: cell-based, Chikungunya virus; settings: MOI 0.1 FFU/cell, 24 hpi, in-house synthesized compound; read-out: EC50 CHIKV-nLuc, U-2 OS
[9] = tested on: CHIKV-nLuc; experiment: microbe, parasite or virus in culture; assay type: cell-based, Chikungunya virus; settings: MOI 0.1 FFU/cell, 24 hpi, in-house synthesized compound; read-out: EC50 CHIKV-nLuc, NHDF
[10] = tested on: U-2 OS cells; experiment: Cytotoxicity assay (PrestoBlue, 24 h) in U-2 OS cells; assay type: cell-based, Human
[11] = tested on: NHDF cells; experiment: Cytotoxicity assay (PrestoBlue, 24 h) in NHDF cells; assay type: cell-based, Human
Procedure: NHDF cells were seeded at 10,000 cells per well in 24-well plates and cultured for 24 h. Cells were then treated with threefold serial dilutions of compounds starting at 500 µM and incubated for 24 h. DMSO was included as a negative control for normalization. Following treatment, cells were incubated with PrestoBlue reagent (ThermoFisher Scientific) for 1 h at 37°C, and fluorescence was measured using a PerkinElmer Victor X5 multilabel plate reader. The CC50 values were determined by normalized non-linear regression with a variable slope model in Prism (GraphPad).

[12] = tested on: CHIKV 181/25; experiment: Virus yield dose-response in U-2 OS cells, CHIKV; assay type: cell-based, Chikungunya virus
[13] = tested on: ONNV; experiment: organism not typed; assay type: cell-based, o'nyong-nyong virus; settings: read-out: EC50 virus production, ONNV
[14] = tested on: RRV; experiment: microbe, parasite or virus in culture; assay type: cell-based, Ross River virus; settings: read-out: EC50 virus production, RRV
[15] = tested on: SINV; experiment: microbe, parasite or virus in culture; assay type: cell-based, Sindbis virus; settings: read-out: EC50 virus production, SINV
[16] = tested on: MAYV; experiment: microbe, parasite or virus in culture; assay type: cell-based, Mayaro virus; settings: read-out: EC50 virus production, MAYV
[17] = tested on: SFV; experiment: microbe, parasite or virus in culture; assay type: cell-based, Semliki Forest virus; settings: read-out: EC50 virus production, SFV
[18] = target: T1, CHIKV trans-replicase (P1234) (Chikungunya virus, UniProt Q8JUX6); experiment: Trans-replicase assay, CHIKV; assay type: cell-based; settings: 100 µM, U-2 OS, 20 h
T1 construct: expression of the P1234 polyprotein drives replication of a reporter RNA template; expressed in transfected cells; host or cells: U-2 OS
Procedure: (§1) U-2 OS cells were seeded at 75,000 cells per well in 24-well plates and cultured for 24 h. Cells were then co-transfected with 250 ng of plasmid encoding template RNA and 250 ng of plasmid encoding P1234 WT ([72], [73]), using Lipofectamine LTX with PLUS reagent (ThermoFisher Scientific) following the manufacturer’s instructions. After 4 h of post-transfection, medium containing 100 µM of compounds or DMSO was added to the cells. Cells were then incubated for 20 h, lysed, and GLuc activity was quantified using the Dual-Luciferase Reporter Assay System (Promega). Luciferase activities were normalized to those of the DMSO-treated controls.

[19] = target: T2, ONNV trans-replicase (P1234) (O'nyong-nyong virus, UniProt P13886); experiment: Trans-replicase assay, ONNV; assay type: cell-based; settings: 100 µM, U-2 OS, 20 h
T2 construct: expression of the P1234 polyprotein drives replication of a reporter RNA template; expressed in transfected cells; host or cells: U-2 OS
Procedure: as §1

[20] = target: T3, RRV trans-replicase (P1234) (Ross river virus, UniProt P13887); experiment: Trans-replicase assay, RRV; assay type: cell-based; settings: 100 µM, U-2 OS, 20 h
T3 construct: expression of the P1234 polyprotein drives replication of a reporter RNA template; expressed in transfected cells; host or cells: U-2 OS
Procedure: as §1

[21] = target: T4, SINV trans-replicase (P1234) (Sindbis virus, UniProt P03317); experiment: Trans-replicase assay, SINV; assay type: cell-based; settings: 100 µM, U-2 OS, 20 h
T4 construct: expression of the P1234 polyprotein drives replication of a reporter RNA template; expressed in transfected cells; host or cells: U-2 OS
Procedure: as §1

[22] = target: T5, SFV trans-replicase (P1234) (Semliki forest virus, UniProt P08411); experiment: Trans-replicase assay, SFV; assay type: cell-based; settings: 100 µM, U-2 OS, 20 h
T5 construct: expression of the P1234 polyprotein drives replication of a reporter RNA template; expressed in transfected cells; host or cells: U-2 OS
Procedure: as §1

[23] = target: T6, BFV trans-replicase (P1234) (Barmah forest virus, UniProt P87515); experiment: Trans-replicase assay, BFV; assay type: cell-based; settings: 100 µM, U-2 OS, 20 h
T6 construct: expression of the P1234 polyprotein drives replication of a reporter RNA template; expressed in transfected cells; host or cells: U-2 OS
Procedure: as §1

[24] = target: EEEV trans-replicase (P1234) (Eastern equine encephalitis virus, UniProt Q306W6); assay type: cell-based
[25] = target: WEEV trans-replicase (P1234) (Western equine encephalitis virus, UniProt P13896); assay type: cell-based
[26] = target: VEEV trans-replicase (P1234) (Venezuelan equine encephalitis virus, UniProt P36328); assay type: cell-based
[27] = tested on: EILV trans-replicase (P1234); experiment: Trans-replicase assay, EILV; assay type: cell-based, Eilat virus; settings: 100 µM, U-2 OS, 20 h
Procedure: as §1

[28] = tested on: CHIKV-nLuc; assay type: cell-based, Chikungunya virus; settings: 20 µM, U-2 OS, reporter read at 24 h
[29] = tested on: CHIKV replicon; settings: read-out: Antiviral potency (EC50 [µM]) CHKV replicon; replicon cells
[30] = tested on: VeroE6 cells
[31] = tested on: U-2 OS cells

T6 sequence (P87515 1-2410 limits assumed): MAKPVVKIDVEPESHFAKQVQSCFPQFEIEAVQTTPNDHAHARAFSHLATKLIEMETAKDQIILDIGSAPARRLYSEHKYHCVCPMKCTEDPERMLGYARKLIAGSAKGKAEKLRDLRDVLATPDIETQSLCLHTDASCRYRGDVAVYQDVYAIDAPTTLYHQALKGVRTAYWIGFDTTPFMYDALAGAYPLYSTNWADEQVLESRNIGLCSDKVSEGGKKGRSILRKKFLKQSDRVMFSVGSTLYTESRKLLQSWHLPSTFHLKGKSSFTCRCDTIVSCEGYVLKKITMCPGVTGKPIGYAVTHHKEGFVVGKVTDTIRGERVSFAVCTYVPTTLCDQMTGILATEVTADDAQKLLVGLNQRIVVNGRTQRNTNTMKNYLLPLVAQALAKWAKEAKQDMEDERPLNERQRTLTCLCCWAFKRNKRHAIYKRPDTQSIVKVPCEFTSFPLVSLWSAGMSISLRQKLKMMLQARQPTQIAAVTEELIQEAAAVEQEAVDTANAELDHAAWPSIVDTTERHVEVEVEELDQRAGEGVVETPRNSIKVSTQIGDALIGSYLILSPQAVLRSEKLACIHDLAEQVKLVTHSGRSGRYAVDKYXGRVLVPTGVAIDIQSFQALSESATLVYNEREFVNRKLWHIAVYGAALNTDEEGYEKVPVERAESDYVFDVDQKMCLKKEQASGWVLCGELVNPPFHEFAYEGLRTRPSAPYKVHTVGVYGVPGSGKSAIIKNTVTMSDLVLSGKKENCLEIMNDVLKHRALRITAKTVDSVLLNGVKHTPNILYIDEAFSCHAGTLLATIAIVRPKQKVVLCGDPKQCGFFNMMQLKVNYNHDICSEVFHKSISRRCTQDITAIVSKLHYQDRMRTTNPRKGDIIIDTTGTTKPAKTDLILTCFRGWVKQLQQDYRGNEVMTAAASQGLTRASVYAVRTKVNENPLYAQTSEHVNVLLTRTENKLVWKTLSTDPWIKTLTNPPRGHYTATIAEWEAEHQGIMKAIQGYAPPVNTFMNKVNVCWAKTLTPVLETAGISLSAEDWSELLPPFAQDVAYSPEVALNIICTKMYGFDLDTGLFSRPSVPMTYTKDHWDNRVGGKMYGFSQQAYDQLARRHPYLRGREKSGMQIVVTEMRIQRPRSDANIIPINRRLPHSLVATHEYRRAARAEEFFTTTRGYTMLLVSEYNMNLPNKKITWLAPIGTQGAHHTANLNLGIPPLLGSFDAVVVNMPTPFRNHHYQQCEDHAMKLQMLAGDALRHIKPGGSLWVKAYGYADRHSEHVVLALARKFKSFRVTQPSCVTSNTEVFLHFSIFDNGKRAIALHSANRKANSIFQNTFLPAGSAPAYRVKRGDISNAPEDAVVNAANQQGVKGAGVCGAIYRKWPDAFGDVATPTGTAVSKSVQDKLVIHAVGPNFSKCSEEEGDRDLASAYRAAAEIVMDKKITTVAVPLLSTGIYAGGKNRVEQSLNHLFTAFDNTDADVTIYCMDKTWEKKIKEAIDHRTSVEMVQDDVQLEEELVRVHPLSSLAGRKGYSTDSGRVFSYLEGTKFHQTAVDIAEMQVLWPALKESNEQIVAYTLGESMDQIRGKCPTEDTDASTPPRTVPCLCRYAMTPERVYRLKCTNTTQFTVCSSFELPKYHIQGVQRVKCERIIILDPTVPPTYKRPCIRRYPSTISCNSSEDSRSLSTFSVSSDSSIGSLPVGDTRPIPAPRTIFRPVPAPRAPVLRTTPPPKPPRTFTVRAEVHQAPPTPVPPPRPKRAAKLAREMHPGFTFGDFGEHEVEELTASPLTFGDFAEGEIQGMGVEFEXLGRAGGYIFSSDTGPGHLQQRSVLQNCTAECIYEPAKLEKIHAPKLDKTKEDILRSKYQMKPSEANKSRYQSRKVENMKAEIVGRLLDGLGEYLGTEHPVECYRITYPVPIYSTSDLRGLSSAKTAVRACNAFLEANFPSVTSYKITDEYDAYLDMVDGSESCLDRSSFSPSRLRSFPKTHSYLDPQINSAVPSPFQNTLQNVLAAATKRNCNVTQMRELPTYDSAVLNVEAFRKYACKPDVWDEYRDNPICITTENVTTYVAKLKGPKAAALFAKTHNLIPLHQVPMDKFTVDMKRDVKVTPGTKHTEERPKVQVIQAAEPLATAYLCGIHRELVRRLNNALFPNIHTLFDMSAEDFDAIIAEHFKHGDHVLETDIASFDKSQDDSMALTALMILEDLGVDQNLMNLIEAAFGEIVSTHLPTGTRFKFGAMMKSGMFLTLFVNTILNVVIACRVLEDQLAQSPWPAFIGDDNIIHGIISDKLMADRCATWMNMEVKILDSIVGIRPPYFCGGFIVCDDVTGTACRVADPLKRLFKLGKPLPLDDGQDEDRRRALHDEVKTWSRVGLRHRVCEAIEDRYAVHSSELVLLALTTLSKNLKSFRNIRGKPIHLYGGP
T6 sequence (P87515 1-533 partner limits assumed): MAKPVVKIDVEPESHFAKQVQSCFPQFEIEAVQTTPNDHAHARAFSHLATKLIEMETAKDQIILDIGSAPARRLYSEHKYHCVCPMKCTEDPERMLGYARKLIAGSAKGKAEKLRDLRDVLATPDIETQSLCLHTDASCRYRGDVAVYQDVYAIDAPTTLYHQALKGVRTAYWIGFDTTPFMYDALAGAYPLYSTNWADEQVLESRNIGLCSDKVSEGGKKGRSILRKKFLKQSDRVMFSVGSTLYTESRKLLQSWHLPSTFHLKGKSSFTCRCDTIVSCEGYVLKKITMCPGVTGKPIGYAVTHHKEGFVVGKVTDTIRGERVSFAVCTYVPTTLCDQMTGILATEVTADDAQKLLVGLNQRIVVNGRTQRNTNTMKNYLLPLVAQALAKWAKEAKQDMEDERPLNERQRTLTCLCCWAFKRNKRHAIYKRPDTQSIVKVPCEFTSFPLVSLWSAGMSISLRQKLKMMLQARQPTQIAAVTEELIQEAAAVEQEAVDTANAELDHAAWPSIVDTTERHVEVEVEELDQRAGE
T6 sequence (P87515 534-1331 partner limits assumed): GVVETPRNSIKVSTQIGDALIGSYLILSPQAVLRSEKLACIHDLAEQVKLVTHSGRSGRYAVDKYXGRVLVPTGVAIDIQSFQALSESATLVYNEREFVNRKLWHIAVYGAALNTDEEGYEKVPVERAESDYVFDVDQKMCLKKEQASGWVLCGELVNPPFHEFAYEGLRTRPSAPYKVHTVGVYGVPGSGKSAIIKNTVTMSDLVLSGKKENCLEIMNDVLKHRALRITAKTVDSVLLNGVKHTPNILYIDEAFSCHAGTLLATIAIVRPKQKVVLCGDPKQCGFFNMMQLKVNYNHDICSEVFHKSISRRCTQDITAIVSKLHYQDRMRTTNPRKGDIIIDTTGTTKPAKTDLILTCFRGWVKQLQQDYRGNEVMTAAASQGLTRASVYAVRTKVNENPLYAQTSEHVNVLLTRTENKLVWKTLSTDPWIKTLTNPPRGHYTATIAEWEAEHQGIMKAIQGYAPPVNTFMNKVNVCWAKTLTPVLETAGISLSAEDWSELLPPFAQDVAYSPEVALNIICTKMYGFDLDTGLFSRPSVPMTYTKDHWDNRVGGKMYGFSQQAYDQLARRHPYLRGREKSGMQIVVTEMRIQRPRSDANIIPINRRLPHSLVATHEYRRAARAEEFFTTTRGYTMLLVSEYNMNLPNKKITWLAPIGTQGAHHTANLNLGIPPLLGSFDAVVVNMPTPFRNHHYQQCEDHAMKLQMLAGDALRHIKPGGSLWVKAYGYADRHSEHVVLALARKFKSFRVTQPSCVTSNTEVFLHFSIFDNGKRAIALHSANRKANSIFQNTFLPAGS

In the case of “N-[2-(4-fluorophenyl)ethyl]-1,5-dimethyl-N-[(2-methylpyrazol-3-yl)methyl]pyrazole-4-sulfonamide [GAP-1146924]”, the “Normalized percent inhibition in primary screen” value [1] is reported as 91.8%, the EC50 [2] is reported as 35.2 µM and the EC50 [3] is reported as greater than 100 µM. For the same substance, the EC50 [4] was greater than 100 µM, the EC50 [5] was greater than 100 µM and the EC50 [6] was greater than 10 µM. It also gave an EC50 [7] greater than 100 µM, an EC50 [8] of 23.4 ± 2.44 µM and an EC50 [9] of 9.33 µM. It also gave a CC50 [10] greater than 500 µM, a CC50 [11] greater than 500 µM and an EC50 ([12]; MOI 0.1, supernatant 24 hpi titered by FFA (Fig. 5), read-out: EC50 virus production, CHIKV) of 16.5 ± 3.99 µM. For the same substance, the EC50 ([12]; resistance study (Fig. 7), read-out: EC50 virus production, CHIKV WT) was 19.7 ± 7.78 µM, the EC50 [13] was 6.09 ± 2.2 µM and the EC50 [14] was greater than 100 µM. It also gave an EC50 [15] greater than 100 µM, an EC50 [16] of 13 ± 5.14 µM and an EC50 [17] greater than 100 µM. For the same substance, the “Effect on RNA replication (GLuc) in trans-replicase assay, CHIKV” value [18] was “inhibited RNA replication”, the “Effect on RNA replication (GLuc) in trans-replicase assay, ONNV” value [19] was “inhibited RNA replication” and the “Effect on RNA replication (GLuc) in trans-replicase assay, RRV” value [20] was “some GAP-1146924 inhibition”. For the same substance, the “Effect on RNA replication (GLuc) in trans-replicase assay, SINV” value [21] was “some GAP-1146924 inhibition”, the “Effect on RNA replication (GLuc) in trans-replicase assay, SFV” value [22] was “some GAP-1146924 inhibition” and the “Effect on RNA replication (GLuc) in trans-replicase assay, BFV” value [23] was “inhibited RNA replication”. The “Effect on RNA replication (GLuc) in trans-replicase assay, EEEV” value [24] was “some inhibition”, the “Effect on RNA replication (GLuc) in trans-replicase assay, WEEV” value [25] was “some inhibition” and the “Effect on RNA replication (GLuc) in trans-replicase assay, VEEV” value [26] was “some inhibition”. For the same substance, the “Effect on RNA replication (GLuc) in trans-replicase assay, EILV” value [27] was “some inhibition”, the “Time-of-addition profile (stage of replication targeted)” value [28] was “act on a stage after viral entry” and the EC50 [29] was 9.2 µM. The CC50 [30] was greater than 100 µM and the CC50 [31] was greater than 100 µM.
